The record followed here is PMC11583123, “Linker Chemistry and Connectivity Fine-Tune the Immune Response and Kinetic Solubility of Conjugated NOD2/TLR7 Agonists” (Bioconjugate Chemistry, 2024).

Each structure is given as a SMILES string. Entries after “also recorded” stand apart in the source; their conditions may differ.

One assay concerns the target T1, human TLR7 (Homo sapiens, UniProt Q9NYK1).
T1 construct: host or cells: HEK-Blue TLR7 (HEK293-derived)
T1 sequence (Q9NYK1 27-1049): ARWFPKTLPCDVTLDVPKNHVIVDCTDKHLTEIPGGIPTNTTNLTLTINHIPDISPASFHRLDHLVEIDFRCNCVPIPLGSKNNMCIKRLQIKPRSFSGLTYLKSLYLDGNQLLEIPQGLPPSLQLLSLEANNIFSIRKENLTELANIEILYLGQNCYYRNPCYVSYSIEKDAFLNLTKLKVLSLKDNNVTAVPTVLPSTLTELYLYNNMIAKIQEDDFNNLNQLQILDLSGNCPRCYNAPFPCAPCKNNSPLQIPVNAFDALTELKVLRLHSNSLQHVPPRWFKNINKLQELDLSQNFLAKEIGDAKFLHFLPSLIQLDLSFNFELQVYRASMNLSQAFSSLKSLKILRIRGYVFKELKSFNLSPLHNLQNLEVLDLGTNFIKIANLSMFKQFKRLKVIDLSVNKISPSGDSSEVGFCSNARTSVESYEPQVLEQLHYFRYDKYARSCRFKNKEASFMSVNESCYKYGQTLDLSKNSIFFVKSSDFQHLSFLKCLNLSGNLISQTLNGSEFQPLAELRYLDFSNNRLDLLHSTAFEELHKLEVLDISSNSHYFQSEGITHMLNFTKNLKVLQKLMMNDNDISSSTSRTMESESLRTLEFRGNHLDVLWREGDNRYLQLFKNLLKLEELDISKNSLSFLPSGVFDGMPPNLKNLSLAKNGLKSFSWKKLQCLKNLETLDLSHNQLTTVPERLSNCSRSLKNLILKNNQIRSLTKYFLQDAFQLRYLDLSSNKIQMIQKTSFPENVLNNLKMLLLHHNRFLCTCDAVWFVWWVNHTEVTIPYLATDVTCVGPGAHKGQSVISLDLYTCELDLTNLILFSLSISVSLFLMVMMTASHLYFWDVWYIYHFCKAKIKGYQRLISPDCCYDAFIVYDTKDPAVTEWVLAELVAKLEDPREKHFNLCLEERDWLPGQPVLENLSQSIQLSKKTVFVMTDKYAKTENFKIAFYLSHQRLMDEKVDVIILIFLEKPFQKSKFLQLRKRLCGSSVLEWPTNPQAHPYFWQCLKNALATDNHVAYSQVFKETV
The assay can be described thus: HEK-Blue TLR7 NF-κB SEAP reporter assay. It counts as cell-based. The settings on record: HEK-Blue TLR7 cells. An excerpt:
The building blocks and synthesized conjugates were initially assessed for their receptor-specific activities toward NOD2, TLR7 and TLR8 using the commercially available HEK-Blue NOD2, TLR7 and TLR8 reporter cell lines. These cell lines were derived from HEK293 cells by cotransfection of human NOD2/TLR7/TLR8 and an NF-κB-inducible secreted embryonic alkaline phosphatase (SEAP). Activation of NOD2/TLR7/TLR8, and subsequently of NF-κB, leads to the expression and secretion of SEAP, the levels of which can be quantified colorimetrically. […]
3.1. Hek-Blue NOD2, TLR7 and TLR8 cells.
HEK-Blue NOD2, TLR7, and TLR8 cells (Invivogen, San Diego, CA, USA) were cultured according to the manufacturer instructions in Dulbecco’s modified Eagle’s medium (Sigma-Aldrich, St. Louis, MO, USA) supplemented with 10% heat-inactivated fetal bovine serum (Gibco), 2 mM L-glutamine (Sigma-Aldrich), 100 U/mL penicillin (Sigma-Aldrich), 100 µg/mL streptomycin (Sigma-Aldrich), and 100 µg/mL Normocin (Invivogen) for two passages. All subsequent passages of NOD2 and TLR8 cells were cultured in medium additionally supplemented with 100 µg/mL Zeocin and 30 µg/mL Blasticidin (Invivogen) and of TLR7 cells with 100 µg/mL Zeocin and 10 µg/mL Blasticidin. […]
The tested compounds were dissolved in DMSO and further diluted in culture medium to the desired final concentrations, such that the final DMSO concentration never exceeded 0.1%. […]
3.4 NOD2/TLR7/TLR8 NF-kB reporter assay
HEK-Blue NOD2 cells (25,000 cells/well), TLR7 and TLR8 cells (40,000 cells/well) were seeded in 96-well plates in 100 µL HEK-Blue detection medium (Invivogen, San Diego, CA, USA) and treated with […]
corresponding vehicle (0.1% DMSO). After 18 h of incubation (37 °C, 5% CO2), secreted embryonic
In general terms: In a reporter assay the amount or activity of a reporter protein is the signal.

Assay [1] deals with human primary peripheral blood mononuclear cells (PBMCs). Kind of assay: Cytokine release from peripheral blood mononuclear cells (LEGENDplex). As to conditions: 1 μM, 18 h, Figure S2. It counts as cell-based. How it is done: Third, the immunostimulatory potential of synthesized conjugates was assessed in human primary peripheral blood mononuclear cells (PBMCs) (Figure 3, Supporting Table), which represent a diverse array of immune cell subpopulations, providing a more physiologically relevant system for studying concurrent NOD2/TLR7 or NOD2/TLR7/TLR8 activation. […]
software (version 9; GraphPad Software, CA, USA). The experiments were run in duplicates, and repeated as at least three independent biological replicates.
3.5 Cytokine Release from Peripheral Blood Mononuclear Cells […]
growth medium and treated with the compounds (1 μM), or the corresponding vehicle (0.1% DMSO).
Cell-free supernatants were collected after 18 h of incubation (37 °C, 5% CO2) and stored at −80 °C until tested. Cytokine concentrations were determined with the LEGENDplex™ HU Essential Immune Response Panel (Biolegend) on an Attune NxT flow cytometer (Thermo Fisher Scientific, Waltham, MA). […] The data were analyzed using the FlowJo (Tree Star, Inc., Ashland, OR) and Prism (GraphPad, San Diego, CA) software.
Statistical significance was determined with one-way ANOVA with subsequent Dunnett’s multiple […]
The data were analyzed using Prism software (version 9; GraphPad Software, CA, USA). Statistical significance was determined according to the specific procedures outlined in each experiment. […]

Where [2] appears, read: 18 h, eight concentrations (1 nM to 10 μM), mean ± SEM.

By EC50 is commonly meant the concentration that produces a half-maximal response. Low readings indicate an effect from little substance, high ones a need for much substance. For the molecule `CCOCc1nc2c(N)nc3ccccc3c2n1CC(C)(C)NC(=O)CCCCCNC(=O)CC[C@@H](NC(=O)[C@@H](NC(=O)CNC(=O)/C=C/c1ccc(O)c(OC)c1)C(C)C)C(=O)OCC` [compound 33], the EC50 is 5.3 µM at human TLR7 and 5.29 ± 1.5 µM at human TLR7 (setting [2]). Also, the “Cytokine release versus combinations of 5 + 6 or 5 + 7 (in words)” value in assay [1] is listed as “devoid of any potential synergistic effect; also recorded: not significantly increased”.
Take `CCOCc1nc2c(NC(=O)CCCCCNC(=O)CC[C@@H](NC(=O)[C@@H](NC(=O)CNC(=O)/C=C/c3ccc(O)c(OC)c3)C(C)C)C(=O)OCC)nc3ccccc3c2n1CC(C)(C)O` [compound 32]: on human TLR7 (setting [2]), the EC50 is > 10 µM. Moreover, the “TLR7 agonistic activity (in words)” value at human TLR7 (up to 10 μM) is “devoid of TLR7 agonistic activity”. For the same molecule, in assay [1], the “Cytokine release versus combinations of 5 + 6 or 5 + 7 (in words)” value is on record as “devoid of any potential synergistic effect; also recorded: not significantly increased”.
